{"source": "patent US9580398B2", "about": "“Compounds, compositions, and methods for modulating ferroptosis and treating excitotoxic disorders” (The Trustees of Columbia University in the City of New York, priority 2012, dated 2017)", "key": {"[1]": {"tested_on": "HT-1080, BJeLR and Calu-1 cells", "assay": "Modulatory profiling of small molecule cell death inhibitors against erastin", "format": "cell-based, human", "settings": "erastin 10 μM, 24 hours, 10-point, 4-fold dilution series", "method": "The day before the experiment, cells were seeded in black, 384-well clear bottom plates (Corning) at a density of 1,000 cells/well using a Beckman Biomek FX Workstation. All compounds (except 3-methyladenine and chloroquine, which were diluted in water) were diluted in DMSO at 250 times the final highest test concentration, and aliquoted across a 384-well plate (Greiner, Monroe, N.C.). A ten-point, 4-fold dilution series of each inhibitor in DMSO was made using a multichannel pipette. Replicates of this mother plate were stored at −20° C. […] Medium was removed from cells and replaced with 36 μL medium containing DMSO (0.1%) or erastin (10 μM final concentration). Using the Biomek FX, 4 μL were then transferred from each inhibitor daughter plate into the DMSO-containing or erastin-containing assay plates. For 3-methyladenine and chloroquine, inhibitors were prepared fresh in media at 10-fold the final concentration in the presence of DMSO or 10 μM erastin. These solutions were manually pipetted onto cells in 384-well format. Assay plates were incubated at 37° C. for 24 hours. Viability was assessed using Alamar Blue.\nThe modulatory effect (Me) for drug-drug interactions was computed as follows. First, plate-based background correction was performed using Alamar Blue values from empty (cell-free) wells included on each plate. Next, within each experiment, 100% viability is determined as the average Alamar Blue score for cells treated with modulator=DMSO and lethal=DMSO, and all Alamar Blue values were scaled from 0 to 1 with the DMSO×DMSO condition=1. The individual effects of each modulator and lethal (e.g. in the presence of DMSO) at all tested doses were then ascertained. […] Next, BExp was compared to the actual observed viability. […] By default, Me in DMSO-treated cells is equal to 0. […] Me values for each inhibitor-lethal drug combination were hierarchically clustered and plotted as a heatmap using the heatmaps.2 function of the gplots library in R."}, "[2]": {"tested_on": "rat organotypic hippocampal slice culture (OHSC)", "assay": "Glutamate-induced excitotoxic cell death in organotypic hippocampal slice cultures (PI uptake)", "format": "cell-based", "settings": "5 mM L-glutamate 3 hours; 24 hours after; DG, CA1, CA3; Fer-1 2 μM, CPX 5 μM, MK-801 10 μM", "method": "OHSCs were cultured as previously described (Morrison et al., 2002) with approval from Columbia University's Institutional Animal Care and Use Committee (IACUC). Briefly, Sprague Dawley rat pups (P8-P10) were rapidly decapitated, and the hippocampus placed in ice-cold Gey's balanced salt solution (Sigma). 400 μm thick sections were cut using a Mcllwain tissue chopper and immediately plated on Millicell cell culture inserts (Millipore, Billerica, Mass.) in Neurobasal (Invitrogen) media supplemented with B27 (1×, Invitrogen), GlutaMAX (1 mM, Invitrogen), and D-glucose (4.5 mg/mL, Sigma) at 37° C. and 5% CO2. After 2 days in vitro (DIV), the media was changed to medium containing serum comprised of 50% DMEM (Sigma), 25% heat-inactivated horse serum (Sigma), 25% Hank's balanced salt solution (Sigma), GlutaMAX (1 mM, Invitrogen), and D-glucose (4.5 mg/mL, Sigma). Medium was changed every 2-3 days.\nAfter 10-14 DIV, OBSCs were exposed to an excitotoxic injury consisting of a 3 hour exposure to 5 mM L-glutamate in SFM (Morrison et al., 2002). Only healthy OHSCs defined as those with less than 5% cell death in all regions of the hippocampus (DG, CA3, CA1) pre-injury were used for experiments. After the 3 hour exposure, the cultures were placed in fresh serum free media (SFM) containing 75% DMEM, 25% Hank's balanced salt solution, GlutaMAX (1 mM), D-glucose (4.5 mg/mL) until cell death was quantified at 24 hours. If drugs were added, they were added at the same time as glutamate.\nQuantification of cell death has been described previously (Cater et al., 2007; Morrison et al., 2002). Brightfield images of the hippocampal cultures were taken before injury for identification of regions of interest (ROI) including the dentate gyrus (DG), CA3 and CA1. Propidium iodide (PI, Invitrogen) was used as a fluorescent signal for cell death, and images were taken before the induction of injury and 24 hours following injury. […] Percentage cell death was expressed as the number of pixels in the ROI above a threshold in the PI fluorescent image divided by the total number of pixels in the ROI."}, "[3]": {"tested_on": "erastin (10 μM)-treated HT-1080 cells", "assay": "Inhibition of death in erastin (10 μM)-treated HT-1080 cells, viability by Alamar Blue", "format": "cell-based, human", "settings": "for EC50: Homo sapiens, HT-1080, inhibition of death in erastin (10 μM)-treated HT-1080 cells, Alamar Blue, from dose response curves; for ability to prevent erastin-induced death: erastin 10 μM, HT-1080 cells", "method": "(§1) Cell viability was typically assessed in 384-well format by Alamar Blue (Invitrogen) fluorescence (ex/em 530/590) measured on a Victor3 platereader (Perkin Elmer, Waltham, Mass.). In some experiments, Trypan Blue dye exclusion counting was performed using an automated cell counter (ViCell, Beckman-Coulter Inc., Brea, Calif.). Cell viability in test conditions is reported as a percentage relative to the negative control treatment.\nFlow cytometry data was analyzed using FloJo (9.3.2, Tree Star, Inc., Ashland, Oreg.). Chemical structures were drawn using ChemDraw Ultra (Cambridgesoft, Cambridge, Mass.). Computational determination of log P (Slog P function) was performed using MOE 2010.10 (Chemical Computing Group, Montreal, […].). Viability data was analyzed using Excel (Microsoft Corp., […].). Summary data and heatmaps were generated using R. Dose-response curves were computed by 4-parameter logistic regression in Prism 5.0c (GraphPad Software). Images were manipulated using Photoshop CS4 and Illustrator CS4 (Adobe, San Jose, Calif.).\nThe ability of various compounds disclosed herein to inhibit death in erastin (10 μM)-treated HT-1080 cells were tested. Cell viability was assessed by Alamar Blue. EC50 values (nM) were computed from dose response curves."}, "[4]": {"assay": "2,2-diphenyl-1-picrylhydrazyl (DPPH) assay, cell-free antioxidant potential", "settings": "test compound 0.05 mM, absorbance at 517 nm", "method": "The stable radical DPPH (Blois, 1958) was dissolved in methanol to a final concentration of 0.05 mM. 1 mL of DPPH solution was added to 2 μL of each test compound dissolved in DMSO. The final concentration of each test compound was 0.05 mM. Samples were inverted several times and allowed to incubate at room temperature for 10 minutes. Samples were then aliquoted to white 96-well solid-bottom dishes (Corning) and absorbance at 517 nm was recorded using a TECAN M200 plate reader. All values were normalized to background (methanol only). The experiment was repeated twice. Results within each trial normalized to DMSO (=1.0), then averaged across trials."}, "[5]": {"tested_on": "ROS production in HT-1080 cells", "assay": "Analysis of reactive oxygen species production by flow cytometry (H2DCFDA, C11-BODIPY, MitoSOX)", "format": "cell-based, human", "experimental": "The day before the experiment, 200,000 cells/well were seeded in 6-well dishes (Corning Inc., Corning, N.Y.). […] Data was collected from the FL1 (H2DCFDA, C11-BODIPY) or FL2 channel (MitoSOX). A minimum of 10,000 cells were analyzed per condition."}, "HT-1080 cells": {"tested_on": "HT-1080 cells", "assay": "Erastin-induced death in HT-1080 cells with co-treated inhibitors (viability, microscopy)", "format": "cell-based, human", "settings": "HT-1080 cells; added up to 6 hours after erastin", "method": "as §1\nPhase contrast images were acquired using an AMG EVOS FL (Advanced Microscopy Group) microscope equipped with a 10× phase-contrast objective. Three independent fields were acquired for each experimental condition. Representative samples from one field of view are shown."}}, "note": "Read-outs that look alike come from different tables or passages of the source. Where a SMILES comes first, the peptide text is derived from it. [ ]: non-standard residue; d: D form. The star is where a group is joined. Nle = CCCC[C@H](N)C(=O)O; Cbz = O=C(OCc1ccccc1)*; CH2F = FC*"}
{"smiles": "Cn1cnc(N)c2ncnc1-2", "note": "[3-methyladenine]", "values": [{"measurement": "modulation of erastin-induced death", "setting": "[1]", "result": "not consistently modulated"}]}
{"smiles": "CCCC[C@@H](C=O)NC(=O)[C@H](CC(C)C)NC(=O)[C@H](CC(C)C)NC(C)=O", "note": "[ALLN] (Ac-Leu-Leu-[Nle]-aldehyde)", "values": [{"measurement": "modulation of erastin-induced death", "setting": "[1]", "result": "not consistently modulated"}]}
{"smiles": "Cc1cc(C2CCCCC2)n(O)c(=O)c1", "note": "[CPX, ciclopirox olamine]", "values": [{"measurement": "glutamate-induced cell death (PI uptake)", "setting": "[2]", "result": "attenuated significantly and to an almost identical extent"}]}
{"smiles": "CCOC(=O)[C@H]1O[C@@H]1C(=O)N[C@@H](CC(C)C)C(=O)NCCC(C)C", "note": "[E64d]", "values": [{"measurement": "modulation of erastin-induced death", "setting": "[1]", "result": "not consistently modulated"}]}
{"smiles": "C[C@]12N[C@H](Cc3ccccc31)c1ccccc12", "note": "[MK-801]", "values": [{"measurement": "glutamate-induced cell death (PI uptake)", "setting": "[2]", "result": "attenuated significantly and to an almost identical extent"}]}
{"smiles": "CCOC(=O)c1ccc(NC2CCCCC2)c([N+](=O)[O-])c1", "note": "[SRS8-24, ethyl 4-(cyclohexylamino)-3-nitrobenzoate]", "values": [{"measurement": "EC50", "setting": "[3]", "result": "> 10000", "unit": "nM"}, {"measurement": "ability to prevent erastin-induced death", "setting": "[3]", "result": "destroyed the antioxidant capability of Fer-1, as well as its ability to prevent erastin (10 μM)-induced death"}, {"measurement": "intrinsic antioxidant capability (DPPH)", "setting": "[4]", "result": "destroyed the antioxidant capability"}]}
{"smiles": "CCOC(=O)c1ccc(NC2CC2)c(N)c1", "note": "[SRS8-72, ethyl 3-amino-4-(cyclopropylamino)benzoate]", "values": [{"measurement": "EC50", "setting": "[3]", "result": 880, "unit": "nM"}, {"measurement": "ability to prevent erastin-induced death", "setting": "[3]", "result": "an order of magnitude less potent than Fer-1"}, {"measurement": "intrinsic antioxidant capability (DPPH)", "setting": "[4]", "result": "retained equivalent intrinsic antioxidant capability"}]}
{"smiles": "N#CC(=C(/N)Sc1ccccc1N)/C(C#N)=C(\\N)Sc1ccccc1N", "note": "[U0126]", "values": [{"measurement": "effect on erastin-induced ROS accumulation", "setting": "[5]", "result": "prevented the accumulation of H2DCFDA-sensitive ROS"}, {"measurement": "protection from death on late addition", "setting": "HT-1080 cells", "result": "substantial protection from death"}, {"measurement": "modulation of erastin-induced death", "setting": "[1]", "result": "rescued from erastin-induced death"}]}
{"smiles": "CO/C1=C\\C(C)=C\\[C@@H](C)[C@@H](O)[C@@H](C)C/C(C)=C/C=C/[C@H](OC)[C@@H]([C@@H](C)[C@@H](O)[C@H](C)[C@@]2(O)C[C@@H](O)[C@H](C)[C@@H](C(C)C)O2)OC1=O", "note": "[bafilomycin A1]", "values": [{"measurement": "modulation of erastin-induced death", "setting": "[1]", "result": "not consistently modulated"}]}
{"smiles": "CCN(CC)CCCC(C)Nc1ccnc2cc(Cl)ccc12", "note": "(stereo not shown) [chloroquine]", "values": [{"measurement": "modulation of erastin-induced death", "setting": "[1]", "result": "not consistently modulated"}]}
{"smiles": "CN1C(=O)C(Cc2c[nH]c3ccccc23)NC1=S", "note": "(stereo not shown) [necrostatin-1]", "values": [{"measurement": "modulation of erastin-induced death", "setting": "[1]", "result": "not consistently modulated"}]}
{"smiles": "C=C(C)[C@H]1Cc2c(ccc3c2O[C@@H]2COc4cc(OC)c(OC)cc4[C@@H]2C3=O)O1", "note": "[rotenone]", "values": [{"measurement": "MitoSOX-sensitive mitochondrial ROS production", "setting": "[5]; HT-1080 cells, 6 hours, erastin 10 μM, rotenone 250 nM", "result": "enhanced MitoSOX-sensitive ROS production"}]}
{"smiles": "Cc1c(C)c2c(c(C)c1O)CCC(C)(C(=O)O)O2", "note": "(stereo not shown) [trolox]", "values": [{"measurement": "effect on erastin-induced ROS accumulation", "setting": "[5]; erastin 10 μM, HT-1080 cells, H2DCFDA, C11-BODIPY", "result": "prevented the accumulation of H2DCFDA-sensitive ROS"}, {"measurement": "protection from death on late addition", "setting": "HT-1080 cells", "result": "substantial protection from death"}, {"measurement": "modulation of erastin-induced death", "setting": "[1]", "result": "rescued from erastin-induced death"}]}
{"smiles": "COC(=O)C[C@H](NC(=O)[C@H](C)NC(=O)[C@@H](NC(=O)OCc1ccccc1)C(C)C)C(=O)CF", "note": "[z-VAD-fmk] (Cbz-Val-Ala-Asp(OMe)-CH2F)", "values": [{"measurement": "modulation of erastin-induced death", "setting": "[1]", "result": "not consistently modulated"}]}
